{
  "source": "paper PMC8897208",
  "about": "(Acta Pharmaceutica Sinica. B, 2021)",
  "key": {"SIRT2": {"target": "T1, SIRT2 (Homo sapiens, UniProt Q8IXJ6)", "T1 sequence (Q8IXJ6 1-389)": "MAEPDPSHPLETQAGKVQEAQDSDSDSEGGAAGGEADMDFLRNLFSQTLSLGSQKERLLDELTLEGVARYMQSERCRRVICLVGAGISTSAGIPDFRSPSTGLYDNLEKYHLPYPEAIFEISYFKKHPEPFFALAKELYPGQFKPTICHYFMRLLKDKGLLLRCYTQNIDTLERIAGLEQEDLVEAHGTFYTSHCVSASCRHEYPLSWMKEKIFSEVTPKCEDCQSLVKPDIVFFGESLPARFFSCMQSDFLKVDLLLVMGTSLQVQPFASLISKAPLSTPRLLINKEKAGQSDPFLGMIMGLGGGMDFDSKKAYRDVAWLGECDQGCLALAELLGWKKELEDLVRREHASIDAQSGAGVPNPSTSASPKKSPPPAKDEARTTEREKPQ", "assay": "HDACs selectivity assay", "format": "biochemical"}, "MiaPaCa-2 cells": {"tested_on": "MiaPaCa-2 cells", "assay": "Proliferation assay", "format": "cell-based", "conditions": "MiaPaCa-2, up to 20 μmol/L, 48 h, CCK-8"}},
  "data": [
    {"smiles": "Nc1nonc1-n1cc(C(=O)N/N=C/c2cc(Cl)cc(C(F)(F)F)c2)nn1", "note": "[JYQ-42]", "values": [
      {"measurement": "IC50", "setting": "SIRT2", "value": "87.2 ± 1.1", "unit": "µM"},
      {"measurement": "inhibition ratio at 50 μmol/L (SIRT2)", "setting": "SIRT2; 50 μmol/L", "value": 38.6, "unit": "%"},
      {"measurement": "SIRT2 IC50 relative to that of SIRT6", "setting": "SIRT2; IC50 SIRT2 / IC50 SIRT6", "value": "approximately 37 fold"},
      {"measurement": "Effect", "setting": "SIRT2; SIRT2", "value": "Inhibition"},
      {"measurement": "cell growth", "setting": "MiaPaCa-2 cells", "value": "no significant impact on cell growth"}
    ]}
  ]
}
